According to the supplement of paper PMC10307832:

Columns and labels:
Assay in all cases: relative viability (nuclei count vs DMSO), 5 days (fraction); higher = more cells survive
DM3189 + Vorinostat = compound: C1CN(CCN1)C2=CC=C(C=C2)C3=CN4C(=C(C=N4)C5=CC=NC6=CC=CC=C56)N=C3 [DM3189] + O=C(CCCCCCC(=O)Nc1ccccc1)NO [Vorinostat] (partner 1 µM)
Summary of the method: (§1)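 Lung cancer cell lines were seeded in 1536-well plates and dosed by pin tool the next day, with either a single drug or a fixed anchor-drug dose combined with five library-drug doses (not always all listed) spaced in √10 steps. Five days later, one step fixed the cells and stained their nuclei (final 0.05% Triton X-100, 1% formaldehyde, 1 ug/ml Hoechst), and nuclei were counted on 4× images. Relative viability is the nuclei count in treated wells divided by the count in vehicle wells, and each value is the median of duplicate plates.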

DM3189 + Foretinib = compound: C1CN(CCN1)C2=CC=C(C=C2)C3=CN4C(=C(C=N4)C5=CC=NC6=CC=CC=C56)N=C3 [DM3189] + COc1cc2c(Oc3ccc(NC(=O)C4(C(=O)Nc5ccc(F)cc5)CC4)cc3F)ccnc2cc1OCCCN1CCOCC1 [Foretinib] (partner 0.25 µM)
Summary of the method: as §1

DM3189 + Bortezomib = compound: C1CN(CCN1)C2=CC=C(C=C2)C3=CN4C(=C(C=N4)C5=CC=NC6=CC=CC=C56)N=C3 [DM3189] + CC(C)C[C@H](NC(=O)[C@H](Cc1ccccc1)NC(=O)c1cnccn1)B(O)O [Bortezomib] (partner 0.002 µM)
Summary of the method: as §1

DM3189 + Tozasertib = compound: C1CN(CCN1)C2=CC=C(C=C2)C3=CN4C(=C(C=N4)C5=CC=NC6=CC=CC=C56)N=C3 [DM3189] + Cc1cc(Nc2cc(N3CCN(C)CC3)nc(Sc3ccc(NC(=O)C4CC4)cc3)n2)n[nH]1 [Tozasertib] (partner 0.1 µM)
Summary of the method: as §1

DM3189 + Luminespib = compound: C1CN(CCN1)C2=CC=C(C=C2)C3=CN4C(=C(C=N4)C5=CC=NC6=CC=CC=C56)N=C3 [DM3189] + CCNC(=O)c1noc(-c2cc(C(C)C)c(O)cc2O)c1-c1ccc(CN2CCOCC2)cc1 [Luminespib] (partner 0.01 µM)
Summary of the method: as §1

Cell Line	relative viability (DM3189 + Vorinostat; first compound 0.08 µM)	relative viability (DM3189 + Vorinostat; first compound 0.253 µM)	relative viability (DM3189 + Vorinostat; first compound 0.8 µM)	relative viability (DM3189 + Vorinostat; first compound 2.53 µM)	relative viability (DM3189 + Foretinib; first compound 0.08 µM)	relative viability (DM3189 + Foretinib; first compound 0.253 µM)	relative viability (DM3189 + Foretinib; first compound 0.8 µM)	relative viability (DM3189 + Foretinib; first compound 2.53 µM)	relative viability (DM3189 + Bortezomib; first compound 0.08 µM)	relative viability (DM3189 + Bortezomib; first compound 0.253 µM)	relative viability (DM3189 + Bortezomib; first compound 0.8 µM)	relative viability (DM3189 + Bortezomib; first compound 2.53 µM)	relative viability (DM3189 + Tozasertib; first compound 0.08 µM)	relative viability (DM3189 + Tozasertib; first compound 0.253 µM)	relative viability (DM3189 + Tozasertib; first compound 0.8 µM)	relative viability (DM3189 + Tozasertib; first compound 2.53 µM)	relative viability (DM3189 + Luminespib; first compound 0.08 µM)	relative viability (DM3189 + Luminespib; first compound 0.253 µM)	relative viability (DM3189 + Luminespib; first compound 0.8 µM)	relative viability (DM3189 + Luminespib; first compound 2.53 µM)
NCI-H1651	0.657	0.587	0.549	0.629	0.83	0.716	0.831	0.827	1.04	0.984	0.908	0.971	0.704	0.722	0.628	0.649	0.811	0.836	0.779	1.01
NCI-H1666	1.04	1.02	1.09	–	1.02	0.97	1.02	0.93	0.853	0.783	0.898	0.91	0.602	0.648	0.737	0.565	1.15	0.983	1.05	1.07
NCI-H1734	0.842	0.805	0.718	0.59	0.888	0.829	0.756	0.823	1.02	0.982	0.778	0.775	0.28	0.266	0.228	0.22	0.202	0.226	0.207	0.199
NCI-H1755	0.771	0.659	0.695	0.685	0.914	0.855	0.718	0.826	0.95	0.878	0.807	0.505	0.475	0.493	0.453	0.524	0.384	0.476	0.425	0.419
NCI-H1915	0.49	0.508	0.383	0.482	1.09	1.07	0.875	1.03	1.04	0.904	0.83	0.88	0.455	0.431	0.402	0.404	0.697	0.817	0.606	0.485
NCI-H1975	0.803	0.732	0.701	0.687	1.02	0.871	0.898	0.782	0.454	0.371	0.297	0.353	0.652	0.693	0.649	0.541	0.302	0.254	0.162	0.263
NCI-H1993	0.856	0.803	0.813	0.854	0.766	0.744	0.672	0.907	–	0.915	1.17	1.27	0.58	0.584	0.554	0.637	0.785	0.705	0.712	0.885
NCI-H2009	0.705	0.647	0.733	0.888	1.22	1.16	1.14	1.25	1.24	1.04	0.782	0.984	0.678	0.69	0.67	0.673	1.06	1.01	0.932	1.06
NCI-H2023	0.688	0.618	0.603	0.604	0.938	0.867	0.857	0.552	1.12	0.961	0.823	0.514	0.442	0.304	0.259	0.266	0.811	0.863	1.09	0.663
NCI-H2085	0.87	0.742	0.795	0.906	0.982	1.02	0.925	1.01	1.08	1.04	1.03	0.958	0.903	0.747	0.898	0.951	0.359	0.389	0.478	0.951
NCI-H2087	0.63	0.49	0.682	0.471	1.28	1.18	1.07	0.969	1.1	0.774	0.768	0.736	0.248	0.277	0.264	0.162	0.187	0.145	0.139	0.176
NCI-H2126	0.998	0.769	0.742	0.705	1.14	1.11	1.18	1.16	1.19	1.18	1.19	1.12	0.823	0.767	0.739	0.803	1.13	0.875	0.913	0.889
NCI-H2228	0.541	0.773	0.593	0.279	0.802	0.828	0.7	0.517	1.19	1.12	0.847	0.659	0.236	0.207	0.227	0.156	0.112	0.132	0.144	0.167
NCI-H2347	0.554	0.626	0.61	0.658	1.24	1.29	0.957	0.843	1.08	0.91	0.944	1.17	0.464	0.475	0.521	0.515	0.671	0.504	0.565	0.485
NCI-H2405	1.16	1	0.942	0.992	1.04	1.06	1.02	1.05	0.986	0.946	0.966	0.96	0.791	0.7	0.741	0.692	0.704	0.754	0.646	0.491
NCI-H3122	0.992	0.74	0.841	1.11	0.98	0.909	0.735	0.805	0.979	0.983	0.973	0.982	0.38	0.35	0.333	0.382	0.0997	0.103	0.072	0.0922
